Two compounds from patent US20190330192A1, “SUBSTITUTED AZOLYLPYRROLONES AND AZOLYLHYDANTOINS AND SALTS THEREOF AND USE THEREOF AS HERBICIDAL ACTIVE SUBSTANCES” (Bayer CropScience Aktiengesellschaft, priority 2016, published 2019) can be followed below.

By inhibition is commonly meant the relative decrease from the control value, in per cent.

The assay deals with T1, photosystem II (PS II) (Spinacia oleracea, UniProt P69560).
T1 construct: the chloroplasts were osmotically ruptured and the thylakoid membranes were then obtained by centrifugation; from tissue; host or cells: fresh spinach leaves; thylakoid membranes from isolated chloroplasts
As to the kind of experiment: Measurement of the PS II activity in thylakoid membranes (DCPIP reduction). Conditions: test compound at 100 μM; spinach thylakoid membranes; DCPIP absorption at 595 nm over 10 min at 22° C. with exposure to light; read-out: Effect (inhibition of PS II activity). In kind it is biochemical. The method, then: Cooled fresh spinach leaves were comminuted and homogenized in 50 mM phosphate buffer, pH 6.8. 10 mM KCl, 0.34 M sucrose (sucrose buffer) (blender, 1 g of plant material/ml). The homogenate was subsequently filtered through 4 layers of Miracloth and the chloroplasts were isolated by centrifugation, i.e. 10 min of centrifugation at 4400×g (4° C.). The sediment was suspended in 25 ml of sucrose buffer and re-centrifuged for 10 min at 4400×g (4° C.). The sediment was then suspended in 40 ml of 50 mM phosphate buffer, pH 6.8, 10 mM KCl, without sucrose. In this step, the chloroplasts were osmotically ruptured and the thylakoid membranes were then obtained by centrifugation (10 min, 4400×g, 4° C.). The membrane sediment was finally suspended in 20 ml of 50 mM phosphate buffer, pH 6.8, 10 mM KCl. […]
The electron transfer from PS II to an artificial electron acceptor, 2,6-dichlorophenolindophenol (DCPIP), was measured with exposure to light. The concentration of the blue oxidized form of DCPIP was determined spectrophotometrically at wavelength λ=595 nm. […]
Depending on the activity of the PS II preparation, the dilution was adjusted such that the measurement of the decrease in absorption (λ=595 nm) was linear for at least 10 min. […] On each microtiter plate, a known PS II inhibitor, for example metribuzin, was used as standard, which allowed the quality of the PS II test to be assessed. […]

For the compound `CCC(=O)OC1C(C)=C(Cl)C(=O)N1c1nc(SC)n(C)n1` (centres unmarked) [1.74-185, 4-Chloro-3-methyl-1-[1-methyl-5-(methylsulfanyl)-1H-1,2,4-triazol-3-yl]-5-oxo-2,5-dihydro-1H-pyrrol-2-ylpropionate], the inhibition at 100 µM (stock) was in the range of 30 to 50%.

Turning to `CC1=C(Cl)C(=O)N(c2nnn(C)n2)C1O` (centres unmarked) [1.82-2, 3-Chloro-5-hydroxy-4-methyl-1-(1-methyl-1H-1,2,4,5-tetrazol-3-yl)-1,5-dihydro-2H-pyrrol-2-one], the inhibition at 100 µM was in the range of 50 to 70%.
